Assay results reported in patent US6838414B2, “Substituted aryl sulphonyl(thio)ureas used as herbicides” (Bayer Aktiengesellschaft, priority 1996, dated 2005).

What was measured:
Assay type in all cases: in vivo
Echinochloa = assay: Post-emergence test/greenhouse; conditions: rated after three weeks vs untreated control
Description: (§1) To produce a suitable preparation of active compound, 1 part by weight of active compound is mixed with the stated amount of solvent, the stated amount of emulsifier is added and the concentrate is diluted with water to the desired concentration.
(§2) Test plants which have a height of 5-15 cm are sprayed with the preparation of the active compound in such a way as to apply the particular amounts of active compound desired per unit area. The concentration of the spray liquor is chosen so that the amounts of active compound desired in each case are applied in 1000 l of water/ha.
(§3) After three weeks, the degree of damage to the plants is rated in % damage in comparison with the development of the untreated control.
(§4) The figures denote: • 0%=no effect (like untreated control) • 100%=total destruction

Alopecurus [1] = assay: Post-emergence test/greenhouse; conditions: rated after three weeks vs untreated control
Description: as §1, §2, §3, §4

Matricaria = assay: Post-emergence test/greenhouse; conditions: rated after three weeks vs untreated control
Description: as §1, §2, §3, §4

weeds [2] = assay: Post-emergence test/greenhouse
Description: as §1, §2, §3, §4

Abutilon = assay: Post-emergence test/greenhouse; conditions: rated after three weeks vs untreated control
Description: as §1, §2, §3, §4

weeds [3] = assay: Pre-emergence test (overall statement); conditions: application rates between 30 g and 125 g of a.i. per hectare
Description: as §1
(§5) Seeds of the test plants are sown in normal soil. After about 24 hours, the soil is sprayed with the preparation of the active compound. Advantageously, the amount of water per unit area is kept constant. The active compound concentration in the preparation is not important, only the active compound application rate per unit area is critical.
as §3, §4

Sorghum = assay: Pre-emergence test/greenhouse; conditions: after three weeks
Description: as §1, §5, §3, §4

Lolium = assay: Pre-emergence test/greenhouse; conditions: after three weeks
Description: as §1, §5, §3, §4

Alopecurus [4] = assay: Pre-emergence test/greenhouse; conditions: after three weeks
Description: as §1, §5, §3, §4

Stellaria = assay: Pre-emergence test/greenhouse; conditions: after three weeks
Description: as §1, §5, §3, §4

Chenopodium = assay: Pre-emergence test/greenhouse; conditions: after three weeks
Description: as §1, §5, §3, §4

Amaranthus = assay: Pre-emergence test/greenhouse; conditions: 60 g of ai./ha, after three weeks
Description: as §1, §5, §3, §4

[5] = application rate 30 g of ai./ha
[6] = application rate 60 g of ai./ha

Row | Structure (SMILES) | degree of damage to the plants, Echinochloa (Echinochloa; [5]) [%] | degree of damage to the plants, Alopecurus (Alopecurus [1]; [5]) [%] | degree of damage to the plants, Matricaria (Matricaria; [5]) [%] | activity against weeds (weeds [2]) | degree of damage to the plants, Abutilon (Abutilon; [5]) [%] | activity against weeds (weeds [3]) | Sorghum, % damage (Sorghum; 30 g of ai./ha) [%] | Alopecurus, % damage (Alopecurus [4]; 30 g of ai./ha) [%] | Steltaria, % damage (Stellaria; 30 g of ai./ha) [%] | Chenopodium, % damage (Chenopodium; 30 g of ai./ha) [%] | Sorghum, % damage (Sorghum; 60 g of ai./ha) [%] | Lolium, % damage (Lolium; 60 g of ai./ha) [%] | Amaranthus, % damage (Amaranthus) [%] | Alopecurus, % damage (Alopecurus [4]; 60 g of ai./ha) [%] | Steltaria, % damage (Stellaria; 60 g of ai./ha) [%] | Chenopodium, % damage (Chenopodium; 60 g of ai./ha) [%] | also measured
1 | CCOc1cccc(C(F)(F)F)c1S(=O)(=O)NC(=O)Nc1nc(C)cc(C)n1 [Example 8] | 90 | 80 | 100 | very strong activity against weeds | 90 | very strong activity against weeds | 100 | 100 | 90 | 80 | – | – | – | – | – | – | Lolium, % damage (Lolium; 30 g of ai./ha): 100%
2 | CCCOc1cccc(C(F)(F)F)c1S(=O)(=O)NC(=O)Nc1nc(OC)nc(OC)n1 [Example 10] | – | – | – | – | – | very strong activity against weeds | – | – | – | – | 100 | 100 | 100 | 100 | 100 | 100 | –
3 | CCCOc1cccc(C(F)(F)F)c1S(=O)(=O)NC(=O)Nc1nc(C)cc(C)n1 [Example 11] | – | – | – | – | – | very strong activity against weeds | – | – | – | – | 100 | 100 | 100 | 100 | 95 | 100 | –
4 | COc1nc(NC(=O)NS(=O)(=O)c2c(OC(C)C)cccc2C(F)(F)F)nc(OC)n1 [Example 13] | – | – | – | – | – | very strong activity against weeds | – | – | – | – | 100 | 100 | 100 | 100 | 100 | 100 | –
5 | Cc1cc(C)nc(NC(=O)NS(=O)(=O)c2c(OC(C)C)cccc2C(F)(F)F)n1 [Example 14] | – | – | – | – | – | very strong activity against weeds | 95 | 100 | 95 | 95 | – | – | – | – | – | – | Lolium, % damage (Lolium; 30 g of ai./ha): 100%
6 | CCOc1cccc(C(F)(F)F)c1S(=O)(=O)NC(=O)Nc1nc(Cl)cc(OC)n1 [Example 16] | 70 | 70 | 100 | very strong activity against weeds | 100 | very strong activity against weeds | 80 | 100 | 90 | 100 | – | – | – | – | – | – | –
7 | CCCOc1cccc(C(F)(F)F)c1S(=O)(=O)NC(=O)Nc1nc(Cl)cc(OC)n1 [Example 17] | 70 | – | 95 | very strong activity against weeds | 90 | – | – | – | – | – | – | – | – | – | – | – | –
8 | CCOc1cccc(C(F)(F)F)c1S(=O)(=O)NC(=O)Nc1nc(OC)cc(OC)n1 [Example 23] | 70 | 60 | 95 | very strong activity against weeds | 95 | – | – | – | – | – | – | – | – | – | – | – | –
9 | CCCOc1cccc(C(F)(F)F)c1S(=O)(=O)NC(=O)Nc1nc(OC)cc(OC)n1 [Example 24] | 70 | 60 | 95 | very strong activity against weeds | 95 | – | – | – | – | – | – | – | – | – | – | – | –
10 | COc1cc(OC)nc(NC(=O)NS(=O)(=O)c2c(OC(C)C)cccc2C(F)(F)F)n1 [Example 25] | 70 | 60 | 90 | very strong activity against weeds | 95 | – | – | – | – | – | – | – | – | – | – | – | –
11 | COc1cc(C)nc(NC(=O)NS(=O)(=O)c2c(C)cccc2OC(C)C)n1 [Example 33] | – | – | – | – | – | very strong activity against weeds | 100 | 100 | 90 | 70 | – | – | – | – | – | – | Lolium, % damage (Lolium; 30 g of ai./ha): 95%
12 | C#CCOc1cccc(C)c1S(=O)(=O)NC(=O)Nc1nc(OC)cc(OC)n1 [Example 34] | 80 | 60 | 90 | very strong activity against weeds | 90 | very strong activity against weeds | 90 | 100 | 90 | 90 | – | – | – | – | – | – | –
13 | CCCOc1cccc(C)c1S(=O)(=O)NC(=O)Nc1nc(C)cc(OC)n1 [Example 46] | – | – | – | – | – | very strong activity against weeds | – | – | – | – | 100 | 90 | 90 | 100 | 80 | 100 | –
14 | CCOc1cccc(C(C)C)c1S(=O)(=O)NC(=O)Nc1nc(OC)nc(OC)n1 [Example 51] | – | – | – | very strong activity against weeds | – | – | – | – | – | – | – | – | – | – | – | – | degree of damage to the plants, Echinochloa (Echinochloa; [6]): 90%; degree of damage to the plants, Alopecurus (Alopecurus [1]; [6]): 80%; degree of damage to the plants, Matricaria (Matricaria; [6]): 90%; degree of damage to the plants, Abutilon (Abutilon; [6]): 100%
15 | COc1nc(C)nc(NC(=O)NS(=O)(=O)c2c(C)cccc2OC2CCCC2)n1 [Example 56] | – | – | – | – | – | very strong activity against weeds | – | – | – | – | 90 | 100 | 100 | 100 | 100 | 100 | –
